Measured values reported in patent publication US20230193192A1 (priority 2021, published 2023).
Converted amounts (≈) assume the structure as drawn.

Tests used:
[1] = tested on: F. novicida; format: cell-based, Francisella novicida; conditions: for MIC: pH 7.1
[2] = tested on: F. tularensis LVS; format: cell-based, Francisella tularensis holarctica Live Vaccine Strain; conditions: for MIC: pH 7.1
[3] = tested on: Francisella philomiragia; format: cell-based
[4] = tested on: Galleria mellonella (waxworm) larvae; conditions: in vivo
[5] = tested on: Francisella tularensis holarctica Live Vaccine Strain; conditions: cited from earlier work
[6] = tested on: Francisella novicida; conditions: cited from earlier work
[7] = tested on: Francisella novicida; conditions: cited from earlier work; remark: listed apart in the source
[8] = tested on: Francisella tularensis tularensis Schu4; conditions: cited from earlier work
[9] = tested on: NIH B38; conditions: cited from earlier work
[10] = tested on: LVS; conditions: standard conditions; cited from earlier work

Compound	This study Colistin [1]	MIC [1] [µg/mL]	This study Colistin [2]	MIC [2] [µg/mL]	This study Colistin [3]	Toxicity, survival of waxworms [4]	Kirby Bauer Colistin [5] [mm]	This study Polymyxin B [1]	This study Polymyxin B [2]	This study Polymyxin B [3]	MIC [6] [µg/mL]	Kirby Bauer Polymyxin B [7] [mm]	Kirby Bauer Polymyxin B [8] [mm]	MIC [9] [µg/mL]	MIC [10] [µg/mL]
Colistin	~1024	1024	> 1024	>1024	> 1024	killed the waxworms	0								
Polymyxin B		256		256		killed the waxworms		256	256	1024	38	19	10		
[H]/N=C(/N)N[C@H]1[C@H](O)[C@@H](O)[C@H](O[C@@H]2O[C@@H](C)[C@](O)(C=O)[C@H]2O[C@@H]2O[C@@H](CO)[C@H](O)[C@@H](O)[C@@H]2NC)[C@@H](N/C(N)=N\[H])[C@@H]1O [Streptomycin, D-Streptamine, O-2-deoxy-2-(methylamino)-α-L-glucopyranosyl-(1->2)-O-5-deoxy-3-C-formyl-α-L-lyxofuranosyl-(1->4)-N1,N3-bis(aminoiminomethyl)-]														0.25 (≈ 0.43 µM)	0.38 (≈ 0.653 µM)
